US11066455B2, “Tmem100 peptides and variants thereof and their use in treating or preventing diseases or conditions” (The Johns Hopkins University, priority 2014, dated 2021)
“Also recorded” adds a separate entry of the source. * marks the point of attachment. Palmitoyl = CCCCCCCCCCCCCCCC(=O)*

B2: TRPV1 (endogenous, mouse DRG) (receptor, UniProt Q704Y3 1-839, looked up)
chain: MEKWASLDSDESEPPAQENSCPDPPDRDPNSKPPPAKPHIFATRSRTRLFGKGDSEEASPMDCPYEEGGLASCPIITVSSVVTLQRSVDGPTCLRQTSQDSVSTGVETPPRLYDRRSIFDAVAQSNCQELESLLSFLQKSKKRLTDSEFKDPETGKTCLLKAMLNLHNGQNDTIALLLDIARKTDSLKQFVNASYTDSYYKGQTALHIAIERRNMALVTLLVENGADVQAAANGDFFKKTKGRPGFYFGELPLSLAACTNQLAIVKFLLQNSWQPADISARDSVGNTVLHALVEVADNTADNTKFVTNMYNEILILGAKLHPTLKLEELTNKKGLTPLALAASSGKIGVLAYILQREIHEPECRHLSRKFTEWAYGPVHSSLYDLSCIDTCEKNSVLEVIAYSSSETPNRHDMLLVEPLNRLLQDKWDRFVKRIFYFNFFVYCLYMIIFTTAAYYRPVEGLPPYKLNNTVGDYFRVTGEILSVSGGVYFFFRGIQYFLQRRPSLKSLFVDSYSEILFFVQSLFMLVSVVLYFSHRKEYVASMVFSLAMGWTNMLYYTRGFQQMGIYAVMIEKMILRDLCRFMFVYLVFLFGFSTAVVTLIEDGKNNSLPVESPPHKCRGSACRPGNSYNSLYSTCLELFKFTIGMGDLEFTENYDFKAVFIILLLAYVILTYILLLNMLIALMGETVNKIAQESKNIWKLQRAITILDTEKSFLKCMRKAFRSGKLLQVGFTPDGKDDFRWCFRVDEVNWTTWNTNVGIINEDPGNCEGVKRTLSFSLRSGRVSGRNWKNFALVPLLRDASTRDRHSTQPEEVQLKHYTGSLKPEDAEVFKDSMAPGEK
notes: whole, on cells

Columns and labels:
[1] = target: TRPV1-CFP; assay: FRET with TIRF microscopy, COS-7 cells, Tmem100-3Q co-expressed
[2] = target: TRPV1-CFP; assay: FRET with TIRF microscopy, COS-7 cells, wild-type Tmem100 co-expressed
[3] = test system: paclitaxel (Taxol)-induced mechanical hyperalgesia in wild-type mice; assay: Paclitaxel-induced mechanical hyperalgesia; type: in vivo, mouse; conditions: F2 5 μl 100 μM intradermal injection
Description: Mice were placed in a transparent plastic box (4.5×5×10 cm) on a metal mesh and acclimatized for 30 minutes prior to testing. Each mouse was tested more than 5 times at a specific force manually, and the threshold was determined by the lowest force needed to elicit responses more than 50% of the time.
Mice were injected with paclitaxel (Sigma T7191) intraperitoneally at the dose of 6 mg/kg, as previously described (Materazzi et al., 2012). Seven days after paclitaxel injection, the mice were assayed with Von Frey methods for mechanical hyperalgesia, both before and four hours after injection of cell permeable peptides.

[4] = test system: SNL-induced mechanical hyperalgesia in wild-type mice; assay: Spinal nerve ligation (SNL) in wild-type mice, mechanical hyperalgesia; type: in vivo, mouse; conditions: day 6 post ligation, 4 hrs post CPP; 5 μl of 2 mM intradermal in hindpaws
Description: In the wild-type mice with spinal nerve ligation (SNL), mechanical hyperalgesia is observed 6 days post ligation. Palmitoylated (Pal) CPP tailored to the C-terminus of human Tmem100-3Q alleviates neuropathic pain/mechanical allodynia in SNL. n=6, *p<0.05 at Day 6 4 hrs post CPP treatment. Scrambled: open bar; human P2-Mut (T100-Mut): black bar (FIG. 17). Peptides (5 μl of 2 mM) were injected intradermally in the hindpaws. Sequences for CPP used in the SNL experiment:
Human P2-Mut (T100-Mut) Pal-[…]-OH (SEQ ID NO: 7); Scrambled Pal-[…]-OH (SEQ ID NO: 19). Pal-palmitoylated in the N termini for each CPP.

[5] = test system: T1, TRPA1; assay: Calcium imaging of HEK293T cells expressing TRPA1 and TRPV1 (MO or CA); type: cell-based; conditions: shortened CPP 2 μM; CA 10 μM; HEK293 TRPA1+TRPV1; vs scrambled
T1 construct: percentage of cells responsive to CA; other: shortened CPP 2 μM; CA 10 μM; HEK293 TRPA1+TRPV1; vs scrambled; percentage of cells responsive to MO; other: peptide 200 nM pre-treatment; 500 nM MO; HEK293T TRPA1+TRPV1; percentage of cells that respond to 100 nM MO and 10 μM CA; other: HEK293T TRPA1+TRPV1, Tmem100-3Q-transfected vs lacki; reduction in the percentage of cells responding to MO

[6] = test system: ongoing neuropathic pain in SNL rats; assay: Conditioned place preference test for ongoing pain in SNL rats; type: in vivo, rat; conditions: intrathecal 50 μM, 10 μl; for conditioned place preference: time in drug-paired chamber, SNL rats: scramble peptide-paired chamber as comparison
From the text: Ongoing, or spontaneous, pain, which is most bothersome to patients, is difficult to treat and difficult to study in animals. The conditioned place preference test has been successfully developed to reveal the presence of non-evoked, ongoing pain and pain relief based on the preference of an animal for the context paired with a pain-relief treatment. The conditioned place preference can also capture the aversive aspects of pain. Strikingly, many studies have shown that the rodent conditioned place preference test accurately reflects the effectiveness of human clinical treatments. Therefore, this test is a powerful approach to investigate the potential effectiveness of new treatments and mechanisms for relief of ongoing pain. Two previous studies have examined the role of TRPA1 in ongoing pain by the conditioned place preference test. […] Because the antagonists used in those studies (HC030031 and Chem5861528) target TRPA1 monomers, it is possible that T100-Mut can inhibit ongoing pain by modulating the TRPA1/V1 complex. This possibility was tested in rodents with SNL-induced ongoing pain using the conditioned place preference test. […] Systemic administration of gabapentin, an analgesic that is known to alleviate neuropathic pain, was used as a positive control (FIG. 16B).

[7] = test system: neuropathic mechanical hypersensitivity in SNL rats; type: in vivo, rat; conditions: intrathecal 10 μl
From the text: An modified L5 SNL model was produced as described in previously (He et al., 2014; Shechter et al., 2013). Male Sprague-Dawley rats (200-350 g, Harlan, Indianapolis, Ind.) were anesthetized with 2% isoflurane. The left L5 spinal nerve was ligated with a 6-0 silk suture and cut distally. The muscle layer was closed with 4-0 chromic gut suture and the skin closed with metal clips. For intrathecal catheter implantation, a small slit was cut in the atlanto-occipital membrane of rats, into which a saline-filled piece of PE-10 tubing (6-7 cm) was inserted (He et al., 2014). […] Hypersensitivity to punctuate mechanical stimulation was determined with the up-down method by using a series of von Frey filaments (0.38-15.1 g) applied for 4-6 seconds to the test area on the plantar surface of the hindpaw (Chaplan et al., 1994; He et al., 2014). The PWT was determined according to the formula provided by Dixon (Dixon, 1980). […] HC-030031 was purchased from Tocris Bioscience (Bristol, UK). Both drugs were dissolved in 10% dimethylsulfoxide (DMSO), 5% Tween 80 and 85% sterile saline solution. The final working solution which was injected by intrathecal route contained <1% DMSO. The number of animals used in each study was based on experience with similar studies and power analysis calculations. Animals were randomized to the different treatment groups and blinded the experimenter to drug treatment to reduce selection and observation bias. After the experiments were completed, no data point was excluded. STATISTICA 6.0 software (StatSoft, Inc., Tulsa, Okla.) was used to conduct all statistical analyses. The Tukey honestly significant difference (HSD) post-hoc test was used to compare specific data points. Bonferroni correction was applied for multiple comparisons. Two-tailed tests were performed, and data are expressed as mean±SEM; P<0.05 was considered significant in all tests.
The sequence from the last 28 amino acids of the C-terminus of the Tmem100-3Q mutant protein was synthesized and myristoylated at its N-terminus (myr-[…]-COOH) (SEQ ID NO: 8) by Twentyfirst Century Biochemicals. […] For the calcium imaging assay, the peptides were added to the calcium imaging buffer with a final concentration of 200 nM and incubated for at least […] at room temperature. For the mice behavioral assays, the peptides (5 μL, 2 mM) were injected subcutaneously in the hindpaw at least 30 minutes before testing. For the rat behavior assays, human T100-3Q (h-T100), a palmitoylated cell permeable peptide mutated based on the C terminus of human sequence in Tmem100, was applied. The sequence is Palmitoyl-[…]-COOH (SEQ ID NO: 7).

[8] = target: B2; assay: co-immunoprecipitation from mouse DRG lysates
From the text: (§1) All groups were transfected with TRPV1-CFP and TRPA1-YFP except for the Rho-pYC (as a positive control for maximal effects of the system) and M-V1 (negative control) groups, where Rho-pYC and membrane-tethered YFP+TRPV1-CFP, respectively, were transfected instead. FRET efficiencies were highest in Tmem100-3Q-transfected cells (A1-V1-3Q), followed by the empty vector-transfected groups (A1-V1), and were lowest in cells transfected with wild-type Tmem100 (A1-V1-WT). The statistic is one-way ANOVA (*$p<0.05$; $p<0.01$, *$p<0.001$). Data are presented as mean±SEM. FIG. 5F is a table showing a summary of the data from FIG. 5E.
(§2) DRG from all levels or CHO cells transfected with Trpv1, Trpa1, and Tmem100-myc were used. Whole cell DRG or CHO cells lysates were generated 24 h after transfection, and Co-IP with either 1 µg myc antibody (EMD Millipore) or 1 µg TRPV1 antibody (Santa Cruz, R130) as described (Akopian et al., 2007) Immunoprecipitants and cell lysate aliquots were resolved by SDS-PAGE and immunoblotted with 1:1000 anti-TRPV1 antibody (Santa Cruz, R130), 1:500 anti-Tmem100 antibody, 1:1000 anti-TRPA1 (Novus), or 1:1000 anti-myc (EMD Millipore). Secondary antibodies for visualization included donkey anti-rabbit and anti-mouse HRP-conjugated antibodies (GE Biosciences). […]

[9] = target: T2, TRPA1 (endogenous, mouse DRG) (mouse, UniProt Q8BLA8 1-1125); assay: co-immunoprecipitation from mouse DRG lysates
T2 construct: whole, on cells
T2 sequence (Q8BLA8 whole entry): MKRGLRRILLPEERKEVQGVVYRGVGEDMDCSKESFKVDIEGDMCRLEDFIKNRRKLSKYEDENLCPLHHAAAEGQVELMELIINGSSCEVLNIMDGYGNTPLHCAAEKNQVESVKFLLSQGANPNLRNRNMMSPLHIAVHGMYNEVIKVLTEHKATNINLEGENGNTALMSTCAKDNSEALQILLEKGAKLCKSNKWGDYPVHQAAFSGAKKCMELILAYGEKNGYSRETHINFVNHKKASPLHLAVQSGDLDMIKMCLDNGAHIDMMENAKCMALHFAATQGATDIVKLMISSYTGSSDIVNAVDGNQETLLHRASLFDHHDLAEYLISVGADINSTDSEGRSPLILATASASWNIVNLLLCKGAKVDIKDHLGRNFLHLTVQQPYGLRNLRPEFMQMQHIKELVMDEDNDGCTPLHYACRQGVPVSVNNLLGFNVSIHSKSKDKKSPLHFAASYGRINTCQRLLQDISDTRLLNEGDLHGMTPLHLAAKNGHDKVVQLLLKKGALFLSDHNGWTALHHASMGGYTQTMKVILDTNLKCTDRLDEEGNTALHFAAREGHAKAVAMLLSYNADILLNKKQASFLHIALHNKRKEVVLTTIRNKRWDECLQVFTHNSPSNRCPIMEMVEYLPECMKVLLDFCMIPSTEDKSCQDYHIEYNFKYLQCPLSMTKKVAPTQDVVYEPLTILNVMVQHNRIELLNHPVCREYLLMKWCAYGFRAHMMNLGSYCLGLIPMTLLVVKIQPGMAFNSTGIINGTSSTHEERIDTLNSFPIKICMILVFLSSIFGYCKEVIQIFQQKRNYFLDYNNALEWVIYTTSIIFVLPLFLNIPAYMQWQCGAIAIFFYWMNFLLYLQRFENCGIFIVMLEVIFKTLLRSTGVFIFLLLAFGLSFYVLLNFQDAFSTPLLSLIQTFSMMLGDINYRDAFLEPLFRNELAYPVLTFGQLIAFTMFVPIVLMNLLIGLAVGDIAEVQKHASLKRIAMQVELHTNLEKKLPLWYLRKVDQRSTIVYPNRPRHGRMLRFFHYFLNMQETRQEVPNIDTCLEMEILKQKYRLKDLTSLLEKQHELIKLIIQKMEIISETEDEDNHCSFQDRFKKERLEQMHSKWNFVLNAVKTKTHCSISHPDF
From the text: as §1, §2

[10] = target: T2, TRPA1 (endogenous, mouse DRG); assay: co-IP with Tmem100 and TRPV1 antibodies, Western blot, mouse DRG lysates
From the text: as §1, §2

## TRPA1-YFP (receptor)
[1]
  increase of the TRPA1-TRPV1 interaction (FRET efficiency) against cells expressing only TRPA1-V1: 43%
[2]
  decrease of FRET efficiency against cells expressing only TRPA1-V1: 34%

## F2: shortened CPP consisting of the first 18 amino acids of the T100-Mut (SEQ ID NO: 17) (WKVRQRNKKVQQQESQTA; listed as Mus musculus)
[3]
  paclitaxel-induced mechanical hyperalgesia: effective
[4]
  SNL-induced mechanical hyperalgesia / allodynia in mice: blocked
[5]
  percentage of cells responsive to CA: significantly reduced; also recorded: same inhibitory effects

## Palmitoyl-WKVRQRSKKAQQQESQTALVANQRSLFA-COOH (Palmitoyl-WKVRQRSKKAQQQESQTALVANQRSLFA-OH; SMILES CCCCCCCCCCCCCCCC(=O)N[C@@H](Cc1c[nH]c2ccccc12)C(=O)N[C@@H](CCCCN)C(=O)N[C@H](C(=O)N[C@@H](CCCNC(=N)N)C(=O)N[C@@H](CCC(N)=O)C(=O)N[C@@H](CCCNC(=N)N)C(=O)N[C@@H](CO)C(=O)N[C@@H](CCCCN)C(=O)N[C@@H](CCCCN)C(=O)N[C@@H](C)C(=O)N[C@@H](CCC(N)=O)C(=O)N[C@@H](CCC(N)=O)C(=O)N[C@@H](CCC(N)=O)C(=O)N[C@@H](CCC(=O)O)C(=O)N[C@@H](CO)C(=O)N[C@@H](CCC(N)=O)C(=O)N[C@H](C(=O)N[C@@H](C)C(=O)N[C@@H](CC(C)C)C(=O)N[C@H](C(=O)N[C@@H](C)C(=O)N[C@@H](CC(N)=O)C(=O)N[C@@H](CCC(N)=O)C(=O)N[C@@H](CCCNC(=N)N)C(=O)N[C@@H](CO)C(=O)N[C@@H](CC(C)C)C(=O)N[C@@H](Cc1ccccc1)C(=O)N[C@@H](C)C(=O)O)C(C)C)[C@@H](C)O)C(C)C; listed as Homo sapiens) [h-T100]
[4]
  SNL-induced mechanical hyperalgesia / allodynia in mice: alleviates
[6]; listed as P2-Mut
  conditioned place preference: time in drug-paired chamber, SNL rats: increased
[6]; listed as human T100-Mut
  conditioned place preference: time in drug-paired chamber, SNL rats: induced robust the conditioned place preference
[6]; sham-operated
  chamber preference in sham-operated rats: did not induce chamber preference
[7]
  contralateral PWT after drug injection: no significant change
[7]; h-T100 10-100 μM, HC-030031 10-200 μM, scrambled 100 μM
  ipsilateral paw withdrawal threshold (PWT) vs pre-drug: dose-dependently increased

B1: Tmem100 (wild-type, full-length, mouse) (other)
chain: MTEESTKENLGAPKSPTPVTMEKNPKREVVVTTGPLVSEVQLMAATGGAELSCYRCIIPFAVVVFITGIVVTAVAYSFNSHGSIISIFGLVLLSSGLFLLASSALCWKVRQRNKKVKRRESQTALVVNQRCLFA
notes: also called Pirt2; T100
[8]
  binding result: binds
[9]
  binding result: binds

## B2
[10]
  binding result: binds
